Results: patent publication US20090074845A1, “TRANSDERMAL ACTIVE PRINCIPLE DELIVERY MEANS” (priority 2005, published 2009)
Values after ≈ are worked out from the molar mass of the structure shown. Read-outs that look alike come from different tables or passages of the source.

Legend:
[1] = tested on: Herpes simplex virus (HSV); assay: Comparative ICVT-ivities of Digoxin, Digitoxin and Lanoxin; assay type: cell-based; settings: for ID50: 250 ug per ml stock solutions, powder in 70% ethanol, Lanoxin in 10% ethanol; for ICVT-ivity of saturated solution compared with standard: saturated solutions in 90% ethanol
[2] = tested on: Herpes simplex virus (HSV); assay type: cell-based
Experimental: […]. The cardiac glycosides Digoxin, Digitoxin, Lanoxin and Strophanthin G were also tested.
Using Herpes simplex virus (HSV), 50% plaque inhibitory dose (1D50) were established using the standard plaque inhibition assay. Various solvents were required to facilitate testing and these were sometimes detrimental to tissue culture, depending upon their concentration. […]; experimental conditions in which solvent toxicity was excluded.
(§1) These compounds (Acetazolamide, Tolbutamide and Hydrochiorthiazide) were further tested using alternative solvents in the same test system (ie the plaque inhibition assay) and others (Bumetanide, Torasemide, Tolbutamide and Hydrochlothiazide) in a more sensitive test for ICVT activity in which the effects on virus yields were determined.

[3] = tested on: Herpes simplex virus (HSV); assay: HSV virus yield test for ICVT activity; assay type: cell-based
Experimental: as §1

Cytomegalovirus = assay: 50% plaque inhibitory concentration, Cytomegalovirus in MRC5
[4] = Solubility of the drugs in a range of solvents
Experimental: A study was performed that measure the solubility of the drugs in a range of solvents.

MRC5 cells [5] = assay: MRC5 cell morphology (phase contrast microscopy); settings: Furosemide 1.0 mg/ml; Digoxin 0.05 ug/ml; combined dosage at individual ID 50; 72 hours
MRC5 cells [6] = assay: MRC5 cell replication; settings: Furosemide 1.0 mg/ml; Digoxin 0.05 ug/ml; both at VZV ID50 concentrations; 72 hours
[7] = Drug permeation through porcine ear skin (Franz diffusion cells)
[8] = Diffusional release of D and F from drug-in-adhesive patches; assay type: physicochemical
[9] = Diffusional release of D and F from Collodions; assay type: physicochemical
Experimental: Drug mix (for composition see table 2) 0.02 g (a stock was made) was weighted on an analytical balance (accurate to 5 decimal places) and added directly to 10 ml of Collodion and 10 ml of ethanol in a McCartney bottle. The molar ratios used were F:D; 1:1, 1:2.5 (2:5) and 1:10 because a smaller amount of drug mix was used, compared to the drug-in-adhesive and this allowed measurable amounts of F to be used. Each of the McCartney bottles was vortexed for three minutes and left to rotate on a blood serum rotator overnight, to ensure that the mixture was homogeneous and that any air bubbles present had dispersed. Control Collodions were also prepared by the same method, however, no drug mix was added.
Different molar ratios of the two drugs were used to determine affect upon release rate and the extent of the release of each drug. The Collodion, 200 μl, was dispensed to the bottom of general 7 ml glass screw cap vials using a Gilson Pipette and left to dry for three hours. Then 2 ml of dissolution medium, again de-gassed EtOH/water 10:90, was added to each vial. The amount of receptor phase sampled and replenished was 200 μl, with a total of five replicates performed for each treatment.
The injection volume of each sample was 20 μl. […] Data were acquired using Agilent software.

[10] = 72 hours
Experimental: The receptor fluid was stirred continuously to ensure a homogenous receptor solution.
The drug that accumulated in the skin was also measured. The drug that was present in a 2 cm diameter cross section of skin was calculated for all four formulations.

Adenovirus = assay: 50% plaque inhibitory concentration, Adenovirus in A549; settings: unidentified adenovirus
[11] = tested on: Varicella Zoster Virus (Ellen strain)
[12] = tested on: type 2 herpes simplex strain 3345; assay: Inhibition of HSV2 replication in African green monkey kidney cells (Example 3); assay type: cell-based, herpes simplex virus; settings: for inhibition at 15 µg/mL: Digoxin 15 mcg/ml; for inhibition at 15 µg/mL / inhibition at 30 µg/mL: Furosemide 0 mg/ml; for inhibition at 30 µg/mL: Digoxin 30 mcg/ml; for inhibition at 500 µg/mL / inhibition at 1000 µg/mL: Digoxin 0 mcg/ml, read-out: Inhibition of virus replication; for inhibition at 500 µg/mL: Furosemide 0.5 mg/ml; for inhibition at 1000 µg/mL: Furosemide 1.0 mg/ml
Excerpt: The compositions were applied to different types of vero cells (African green monkey kidney cells and BHK1 cells) and infected with type 2 herpes simplex virus (strains 3345 and 180) at low, intermediate, and high multiplicities of infection (MOI). Inhibition of virus replication was scored on the scale:
The following results were obtained using African green monkey kidney cells and type 2 herpes simplex strain 3345: […]

Herpes simplex virus = assay: 50% plaque inhibitory concentration, Herpes simplex virus in MRC5
MRC5 cells [13] = settings: uninfected cells; drug(s) at VZV ID 50 concentrations
Varicella-Zoster virus = assay: 50% plaque inhibitory concentration, Varicella-Zoster virus in MRC5
[14] = patches F:D 1:1 across pig skin
Experimental: The ears were washed under running water and full-thickness dorsal skin was separated from the cartilage via blunt dissection using a scalpel, then hair was removed using an electric razor. The skin was cut into samples of approximately 2 cm^2 and visually inspected to ensure that each piece was free from abrasions and blood vessels. Specimens were then stored in a crease free state on aluminium foil at −20° C. until required.
The skin samples were removed from the freezer and left to fully defrost. The donor and receptor compartments of Franz-type diffusion cells (see FIG. 13) were greased, to provide a tight seal and prevent any leakage from the receptor phase. The polymer-lined paper was removed from the patches to expose one side and firmly pressed centrally onto the surface of each piece of skin. After adhesion was established, the skin was mounted onto the flange of a receptor compartment (nominal volume 2.5 ml) of the diffusion sell, ensuring that the patch was placed directly over the flange aperture. […]
D and F were detected using an ultraviolet (UV) detector set at wavelength 220 nm. […]
Chromatogram peaks were integrated manually, and the data corrected for dilution effects. Cumulative release was determined and plotted against the square route of time to determine release rates. Cumulative permeation data were determined and plotted against time to order to obtain flux. […]

[15] = Drug release from Glue 1 mass-ratio patches into mobile phase
[16] = cited from earlier work
[17] = Human alphaherpesvirus 2, read-out: Inhibition of virus replication, HIGH MOI HSV2
[18] = Human alphaherpesvirus 2, read-out: Inhibition of virus replication, LOW MOI HSV2
[19] = Human alphaherpesvirus 2, HIGH MOI HSV2
[20] = Human alphaherpesvirus 2, INT. MOI HSV2
[21] = Human alphaherpesvirus 2, LOW MOI HSV2

Question: For `C[C@H]1O[C@@H](O[C@H]2[C@@H](O)C[C@H](O[C@H]3[C@@H](O)C[C@H](O[C@H]4CC[C@@]5(C)[C@H](CC[C@@H]6[C@@H]5CC[C@]5(C)[C@@H](C7=CC(=O)OC7)CC[C@]65O)C4)O[C@@H]3C)O[C@@H]2C)C[C@H](O)[C@@H]1O` [Digitoxin], which ID50 [1] is on record?
Answer: The ID50 was 30 ng per ml.

Question: What about the “ICVT-ivity of saturated solution compared with standard” value [1] of the same compound?
Answer: Its value is “more effective than Digoxin”.

Question: And the “ICVT activity (in words)” value ([2]; HSV plaque inhibition assay)?
Answer: The value was “potent ICVT activity”.

Question: For `C[C@@H]1O[C@@H](O[C@H]2C[C@@H](O)[C@]3(CO)[C@H]4[C@H](O)C[C@]5(C)[C@@H](C6=CC(=O)OC6)CC[C@]5(O)[C@@H]4CC[C@]3(O)C2)[C@H](O)[C@H](O)[C@H]1O` [Strophanthin G], which “remark on toxicity at the HSV Plaque ID50” value ([2]; 1 mg/ml, Solvent: Aqueous) is on record?
Answer: Its value is “Cytotoxic”.

Question: For `Cc1cccc(Nc2ccncc2S(=O)(=O)NC(=O)NC(C)C)c1` [Torasemide], which HSV yield ([3]; at 90 μg/ml, Solvent: NaOH 1% aqueous 5 mg/ml) is on record?
Answer: Its HSV yield is “HSV yield unaffected at 90 μg/ml”.

Question: What does the source list for `NS(=O)(=O)c1cc2c(cc1Cl)NCNS2(=O)=O` [Hydrochiorothiazide, Hydrochlorothiazide]?
Answer: ICVT activity (in words) ([2]; HSV plaque inhibition assay): borderline; concentration at which HSV yield reduced to zero ([3]; Solvent: NaOH 1% aqueous 10 mg/ml): HSV yield reduced to zero at 600 ug/ml

Question: For `CC(=O)Nc1nnc(S(N)(=O)=O)s1` [Acetazolamide], which “ICVT activity (in words)” value ([2]; HSV plaque inhibition assay) is on record?
Answer: The value was “borderline”.

Question: Which results are given for `C[C@H]1O[C@@H](O[C@H]2[C@@H](O)C[C@H](O[C@H]3[C@@H](O)C[C@H](O[C@H]4CC[C@@]5(C)[C@H](CC[C@@H]6[C@@H]5C[C@@H](O)[C@]5(C)[C@@H](C7=CC(=O)OC7)CC[C@]65O)C4)O[C@@H]3C)O[C@@H]2C)C[C@H](O)[C@@H]1O` [Digoxin]?
Answer: IC50 (Cytomegalovirus; Human betaherpesvirus 5, MRC5, read-out: Digixin IC50): 0.02 µg/mL (≈ 0.0256 µM); solubility ([4]; Solvent Methanol): 8200 µg/mL (≈ 10500 µM); solubility ([4]; organic solvent or mixture, Solubility, Solvent Ethanol): 5080 µg/mL (≈ 6500 µM); solubility ([4]; organic solvent or mixture, Solubility, Solvent Ethyl acetate): 20400 µg/mL (≈ 26100 µM); effect on MRC5 cell morphology (MRC5 cells [5]): no adverse effect on cell morphology; uninfected MRC5 cell replication (MRC5 cells [6]): replicated to normal yields; ID50 [1]: 60 ng per ml; ICVT-ivity of saturated solution compared with standard [1]: as effective as Lanoxin; ICVT activity (in words) [2]: potent ICVT activity; loading dose required ([7]; for flux of 1.04 μg per cm^2 per hour (25 μg per day per cm^2)): 6004.5 μg per cm^3; initial concentration within the patch for the flux to be greater than zero ([7]; from plot of patch concentration vs steady state flux through skin): 804.5 µg/mL; maximum mass/area of digoxin released (maximal dose) [8]: ~136.18 μgcm^−2; maximal dose of digoxin released ([9]; from Collodion after 24 hr): ~34.01 μg cm^−2; concentration at which the skin was saturated [10]: 12.73 μg/cm^2; concentration at which the skin was saturated ([10]; 2 cm diameter skin section): 40 ug over 3.14 cm^2; IC50 (Adenovirus; A549, read-out: Digixin IC50): 0.015 µg/mL (≈ 0.0192 µM); inhibition [11]: ~50%; mass/area that permeated the skin (Collodion): 8.02 μg cm^−2; Apparent maximum flux (Collodion F:D 1:1 across pig skin): 0.313 μgcm^−2 h^−1; Q24 permeation % (Collodion F:D 1:1 across pig skin, % of loading): 5.39%; AMF (Collodion, calculated between 12-24 hr): 0.313 μg cm^−2 h^−1; Virus particles per cell (feline herpesvirus; Feline herpes virus, drug(s) at IC50, No Drug 50): 0.75; remaining low level of virus replication (feline herpesvirus; feline herpesvirus, drug at IC50): 0.5%; production of infectious virus reduced by (feline herpesvirus; feline herpesvirus, drug(s) at IC50): 98.5%; inhibition at 15 µg/mL [12, 17]: 0%; inhibition at 30 µg/mL [12, 17]: 0%; inhibition at 15 µg/mL ([12]; Human alphaherpesvirus 2, read-out: Inhibition of virus replication, INT. MOI HSV2): 0%; inhibition at 15 µg/mL [12, 18]: 0%; inhibition at 30 µg/mL [12, 18]: 60%; IC50 (Herpes simplex virus; MRC5, read-out: Digixin IC50): 0.025 µg/mL (≈ 0.032 µM); MRC5 cell metabolism (MTT assay) (MRC5 cells [13]): normal levels of metabolism; IC50 (Varicella-Zoster virus; Human alphaherpesvirus 3, MRC5, read-out: Digixin IC50): 0.05 µg/mL (≈ 0.064 µM); Apparent flux maximum [14]: 3.499 μgcm^−2 h^−1; Q24 permeation % ([14]; % of loading): 0.12%; permeation coefficient for the patch [15]: 0.16 ×10⁻⁶ cm/s; solubility ([16]; in diluted (50%) alcohol and in chloroform): slightly soluble; solubility ([16]; in pyridine): freely soluble; solubility ([16]; in water and in ether): practically insoluble

Question: With `CCCCNC(=O)NS(=O)(=O)c1ccc(C)cc1` [Tolbutamide] as the compound, how does the “ICVT activity (in words)” value ([2]; HSV plaque inhibition assay) read?
Answer: Its value is “borderline”.

Question: And the “concentration at which HSV yield reduced to zero” value ([3]; Solvent: PEG 10 mg/ml)?
Answer: Its value is “HSV yield reduced to zero 300 μg/ml”.

Question: What about the “concentration at which HSV yield reduced to zero” value ([3]; Solvent: PG 10 mg/ml) of the same compound?
Answer: The value was “HSV yield reduced to zero 300 μg/ml”.

Question: For `NS(=O)(=O)c1cc(C(=O)O)c(NCc2ccco2)cc1Cl` [Furosemide, 4-chloro-N-furfuryl-5-sulfamoylanthranilic acid], which IC50 (Cytomegalovirus; Human betaherpesvirus 5, MRC5, read-out: Furosemide IC50) is on record?
Answer: Its IC50 is 600 µg/mL (≈ 1810 µM).

Question: And the “ICVT activity (in words)” value ([2]; HSV plaque inhibition assay)?
Answer: Its value is “potent ICVT activity”.

Question: And the “Maximal dose released (furosemide)” value ([9]; from Collodion after 48 hr)?
Answer: Its value is ~6.02 μg cm^−2.

Question: And the IC50 (Adenovirus; A549, read-out: Furosemide IC50)?
Answer: Its IC50 is 300 µg/mL (≈ 907 µM).

Question: What about the inhibition at 500 µg/mL [12, 19] of the same compound?
Answer: Its inhibition at 500 µg/mL is 0%.

Question: And the inhibition at 1000 µg/mL [12, 19]?
Answer: Its inhibition at 1000 µg/mL is 40%.

Question: What about the inhibition at 500 µg/mL [12, 20] of the same compound?
Answer: The inhibition at 500 µg/mL was 20%.

Question: What about the inhibition at 1000 µg/mL [12, 20] of the same compound?
Answer: The inhibition at 1000 µg/mL was 60%.

Question: And the inhibition at 500 µg/mL [12, 21]?
Answer: Its inhibition at 500 µg/mL is 20%.

Question: And the inhibition at 1000 µg/mL [12, 21]?
Answer: Its inhibition at 1000 µg/mL is 60%.

Question: And the IC50 (Herpes simplex virus; MRC5, read-out: Furosemide IC50)?
Answer: The IC50 was 600 µg/mL (≈ 1810 µM).

Question: What about the IC50 (Varicella-Zoster virus; Human alphaherpesvirus 3, MRC5, read-out: Furosemide IC50) of the same compound?
Answer: The IC50 was 500 µg/mL (≈ 1510 µM).
